Where a name gives a salt, the structure may show the parent alone.
Key:
[1] = Solubility of Omecamtiv mecarbil salts in water solution (aqueous buffer) at different pH; assay type: physicochemical; details: for Category of solubility (Descriptive Term): USP / Ph. Eur. descriptive terms; for Solubility in comparison with Omecamtiv mecarbil dihydrochloride monohydrate salt: water solution at pH 1.2, 4.5 and 6.8
Description: The solubility of prepared salts was tested in water solution at different pH (1.2, 4.5 and 6.8) and compared to Omecamtiv mecarbil dihydrochloride monohydrate salt prepared according to a procedure disclosed in WO2006009726 application. It can be concluded that solubilities of Omecamtiv mecarbil maleic acid salt, Form A, Omecamtiv mecarbil fumaric acid (1:1), Form I, Omecamtiv mecarbil malonic acid (1:1), Form I, Omecamtiv mecarbil adipic acid (1:1.5), Form I, Omecamtiv mecarbil sulfuric acid (1:1), Forms I, II and III salts are lower in comparison with Omecamtiv mecarbil dihydrochloride monohydrate salt.

[2] = Solid form stability when kept at elevated temperature and relative humidity; assay type: physicochemical; details: 70% to 100% relative humidity, between 20 and 40 days
Description: The Form II can be characterized by XRPD pattern having 2θ values 5.0°, 9.3° and 16.5° degrees 2 theta (f 0.2 degrees 2 theta). The solid Form II can be also characterized by XRPD pattern having 2θ values 5.0°, 9.3°, 16.5°, 18.6° and 24.6° degrees 2 theta (±0.2 degrees 2 theta). The solid form can be further characterized by XRPD pattern described in the following table:
The Form III can be characterized by XRPD pattern having […] 14.3°, 19.3° and 25.8° degrees 2 theta (±0.2 degrees 2 theta). The solid […] can be also characterized by XRPD pattern having 2θ values 5.4°, 7.5°, 14.3°, 19.3° and 25.8° degrees 2 theta (±0.2 degrees 2 theta). The solid form can be further characterized by XRPD pattern described in the following table: […]

Compound	Category of solubility (Descriptive Term) ([1]; aqueous buffer pH 1.2)	Category of solubility (Descriptive Term) ([1]; aqueous buffer pH 4.5)	Category of solubility (Descriptive Term) ([1]; aqueous buffer pH 6.8)	Solubility in comparison with Omecamtiv mecarbil dihydrochloride monohydrate salt ([1]; Form I)	Solid form transformation on storage ([2]; temperature between 40° C. and 70° C.)	Solubility in comparison with Omecamtiv mecarbil dihydrochloride monohydrate salt ([1]; Form A)	Solubility in comparison with Omecamtiv mecarbil dihydrochloride monohydrate salt ([1]; listed as Omecamtiv mecarbil sulfuric acid (1:1), Forms I, II and III)	Solid form transformation on storage ([2]; temperature between 40° C. and 80° C.)
COC(=O)N1CCN(Cc2cccc(NC(=O)Nc3ccc(C)nc3)c2F)CC1 [Salt with fumaric acid (1:1), Form I, Omecamtiv mecarbil fumaric acid (1:1) salt]	Very slightly soluble ((0.1-1 mg/mL))	Sparingly soluble ((10-33 mg/mL))	Sparingly soluble ((10-33 mg/mL))	lower	transformed to Omecamtiv mecarbil fumaric acid (1:1), Form II	–	–	–
COC(=O)N1CCN(Cc2cccc(NC(=O)Nc3ccc(C)nc3)c2F)CC1 [Salt with maleic acid, Form A, Omecamtiv mecarbil maleic acid salt]	Sparingly soluble ((10-33 mg/mL))	Sparingly soluble ((10-33 mg/mL))	Very slightly soluble ((0.1-1 mg/mL))	–	–	lower	–	–
COC(=O)N1CCN(Cc2cccc(NC(=O)Nc3ccc(C)nc3)c2F)CC1 [Salt with sulfuric acid (1:1), Forms I, II and III] [Omecamtiv mecarbil sulfuric acid salt]	Sparingly soluble ((10-33 mg/mL))	Sparingly soluble ((10-33 mg/mL))	Sparingly soluble ((10-33 mg/mL))	–	–	–	lower	–
COC(=O)N1CCN(Cc2cccc(NC(=O)Nc3ccc(C)nc3)c2F)CC1 [Salt with fumaric acid (1:2), Form I, Omecamtiv mecarbil fumaric acid (1:2) salt]	Freely soluble ((100-1000 mg/mL))	Freely soluble ((100-1000 mg/mL))	Freely soluble ((100-1000 mg/mL))	comparable	–	–	–	–
COC(=O)N1CCN(Cc2cccc(NC(=O)Nc3ccc(C)nc3)c2F)CC1 [Salt with adipic acid (1:1.5), Form I, Omecamtiv mecarbil adipic acid (1:1.5) salt]	Sparingly soluble ((10-33 mg/mL))	Sparingly soluble ((10-33 mg/mL))	Very slightly soluble ((0.1-1 mg/mL))	lower	–	–	–	–
COC(=O)N1CCN(Cc2cccc(NC(=O)Nc3ccc(C)nc3)c2F)CC1 [Salt with malonic acid (1:1), Form I, Omecamtiv mecarbil malonic acid (1:1) salt]	Sparingly soluble ((10-33 mg/mL))	Sparingly soluble ((10-33 mg/mL))	Very slightly soluble ((0.1-1 mg/mL))	lower	–	–	–	–
COC(=O)N1CCN(Cc2cccc(NC(=O)Nc3ccc(C)nc3)c2F)CC1 [Salt with HC1, Omecamtiv mecarbil dihydrochloride monohydrate salt, reference compound]	Freely soluble ((100-1000 mg/mL))	Freely soluble ((100-1000 mg/mL))	Freely soluble ((100-1000 mg/mL))	–	–	–	–	–
COC(=O)N1CCN(Cc2cccc(NC(=O)Nc3ccc(C)nc3)c2F)CC1 [Omecamtiv mecarbil sulfuric acid salt]	–	–	–	–	–	–	–	transformed to Omecamtiv mecarbil sulfuric acid salt, Form III
